According to patent publication US3935313A, “Pharmaceutical composition containing N-(3-diethyl-aminopropyl)-4-nitro-1-oxide-pyridine-2-carboxamide and process for the treatment of hypertension therewith” (Aron-Samuel; Jan Marcel Didier, priority 1971, dated 1976):

Experiments:
[1] = test system: hypertensive subjects; experiment: Treatment of a hypertensive patient with α-methyldopa alone; format: in vivo, Man; conditions: TRU... Yves
Description: Strong functional signs (headaches, dizziness). Treated during one month with α-methyldopa: 2, then 4, then 6 tablets per day, containing each 250 mg active ingredient.

[2] = Acute toxicity (method of Lichtfield and Wilcoxon); conditions: in vivo
Excerpt: The compound used for such tests is the hydrochloride (LA 2511).

[3] = Chronic toxicity, 6 months, Rhesus monkeys; format: in vivo; conditions: up to maximum dose tested 400 mg/kg
[4] = Chronic toxicity, 6 months, rats; format: in vivo; conditions: up to maximum dose tested 400 mg/kg
[5] = Teratogenicity in rats; format: in vivo; conditions: 600 mg/kg
[6] = Teratogenicity in rabbits; format: in vivo; conditions: 200 mg/kg
[7] = test system: dogs made hypertensive by the bilateral destruction of the sensory endings of the sino-carotid area; experiment: Anti-hypertensive effect in dogs with destroyed sino-carotid sensory endings; format: in vivo
Excerpt: (§1) The anti-hypertensive effect was investigated:
1. in dogs made hypertensive by the bilateral destruction of the sensory endings of the sino-carotid area;

[8] = test system: rats made hypertensive by implantation of two 25 mg deoxycorticosterone pellets combined with a sodium enriched diet; experiment: Anti-hypertensive effect in deoxycorticosterone/sodium hypertensive rats; format: in vivo
Description: as §1
2. in rats made hypertensive by implantation of two 25 mg deoxycorticosterone pellets combined with a sodium enriched diet;

[9] = test system: rats made hypertensive according to Goldblatt's method; experiment: Anti-hypertensive effect in Goldblatt hypertensive rats; format: in vivo
Excerpt: as §1
3. in rats made hypertensive according to Goldblatt's method (unilateral renal arterial constriction with contralateral nephrectomy).

[10] = test system: normotensive subjects; experiment: Effects in normotensive subjects; format: in vivo, Man
Description: Prior to the therapeutic tests, toxicological and clinical pharmacological investigations were conducted in normotensive Man. […] The systolic pressure is depressed by 2 to 4 cm of mercury, while the diastolic pressure is depressed by 2 cm, on the average.
Dosage of compound administered: 1 tablet containing 400 mg active ingredient during 1 week, 2 tablets during 1 week, 3 tablets during 3 weeks.
Dosage of compound administered: 1 tablets containing 400 mg active ingredient during 3 weeks, 2 tablets during the 5 following weeks.

[11] = test system: patients with true hypertension; experiment: Clinical experimentation involving 22 hospital patients; format: in vivo, Man; conditions: of 22 patients; criteria: systolic L1, diastolic L2
Description: Clinical experimentation involving 22 hospital patients.
Procedure: The patients selected suffer from true hypertension involving both systolic pressure and diastolic pressure. Before starting treatment with the compound, it was ascertained, during a period of time of 8 days, in the absence of any hypotensive treatment, that this hypertension was stable in the morning, at noon and in the evening, in standing, sitting and recumbent positions.
1. Effect on blood pressure: the result was evaluated on the basis of the blood pressure depression, expressed as cm of mercury, according to the following criteria: Result Nil Fair Good Very good __________________________________________________________________________ Systolic pressure depression 0 < 3 cm 3-4 cm > 4 cm Diastolic pressure depression 0 <1.5 cm 1.5-2 cm >2 cm __________________________________________________________________________
2. Effect on functional signs: headaches, dizziness, floating specks, ear buzzing.

[12] = test system: hypertensive subjects; experiment: Treatment of hypertensive subjects with the compound in combination with other anti-hypertensive materials; format: in vivo, Man
Description: Combinations of the compound of this invention with other anti-hypertensiveagents were also investigated.
The most important combination is that with diuretic drugs, as predicted from the efficiency data provided by the pharmacological investigation. A reduction of the dosage of compound of about 50% and/or a three-fold duration of the action are obtained.
Dosage of compound administered: 5 tablets containing 400 mg active compound daily during 30 days. Associated treatment: salt-free diet, potassium chloride, furosemide: one 40 mg tablet, 3 times a week.
Dosage of compound administered: 5 tablets containing 400 mg active material, daily during 30 days. Associated treatment: potassium chloride, altizide: 15 mg; spironolactone: 25 mg.
Treatment during one month with the compound of this invention: 4 tablets daily, containing each 400 mg active ingredient, taken two at a time, plus 4 tablets daily of α-methyl dopa, containing each 250 mg active ingredient, taken two at a time.

[13] = test system: hypertensive subjects; experiment: Therapeutic effects in hypertensive subjects, compound alone
Procedure: About a hundred patients were treated with the compound during several months.
The compound was tested alone at dosages from 300 mg to 5 g daily. […] The results just set forth relate to determinations made with the patients in a recumbent position.

[14] = oral, 200 mg to 5 g daily, normotensive
[15] = GAU... Albert, 5 x 400 mg daily 30 days + altizide 15 mg, spironolactone 25 mg, potassium chloride, prior 21/13
[16] = GAU... Albert, + altizide, spironolactone
[17] = SUF... Auguste, 5 x 400 mg daily 30 days + furosemide 40 mg 3 times a week, potassium chloride, salt-free diet, prior 24/12
[18] = TRU... Yves, 4 x 400 mg daily + α-methyldopa 4 x 250 mg daily, one month, after α-methyldopa alone 21/111/2
[19] = combination with diuretic drugs
[20] = fraction of subjects, alone, 300 mg to 5 g daily, recumbent
[21] = more than half the subjects, alone, 300 mg to 5 g daily, recumbent
[22] = one-fourth of the patients, alone, 300 mg to 5 g daily, recumbent
[23] = use as anti-hypertensive material in Man

In the case of `C[C@](N)(Cc1ccc(O)c(O)c1)C(=O)O` [α-methyldopa], the “blood pressure after treatment with α-methyldopa, standing” value ([1]; 2, 4, then 6 tablets of 250 mg per day, one month, prior 22/12) was 20/11, the “blood pressure after treatment with α-methyldopa, recumbent” value ([1]; 2, 4, then 6 tablets of 250 mg per day, one month, prior 23/12) was 21/111/2 and the “blood pressure after treatment with α-methyldopa, sitting” value ([1]; 2, 4, then 6 tablets of 250 mg per day, one month, prior 23/111/2) was 21/111/2. The functional signs ([1]; α-methyldopa alone, headaches, dizziness) was “Slight decrease of the functional signs”.
With `CCN(CC)CCCNC(=O)c1cc([N+](=O)[O-])cc[n+]1[O-]` [LA 2511, N-(3-diethylaminopropyl)-4-nitro-1-oxide-pyridine-2-carboxamide] the LD50 [2] was 2000 mg/kg, the “toxic effect on chronic treatment” value [3] was “no toxic effect” and the “toxic effect on chronic treatment” value [4] was “no toxic effect”. For the same molecule, the teratogenic effect [5] was “No teratogenic effect”, the teratogenic effect [6] was “No teratogenic effect” and the “anti-hypertensive efficiency in combination with diuretics” value ([7]; in combination with diuretics, stated for the experimental hypertension models together) was “efficiency is extended”. The anti-hypertensive efficiency ([7]; sino-carotid denervated hypertensive dogs) was “substantial consistent efficiency”, the anti-hypertensive efficiency [8] was “substantial consistent efficiency” and the anti-hypertensive efficiency [9] was “substantial consistent efficiency”. The “blood pressure after treatment, recumbent, evening” value ([10]; CHA... Paul, 400 mg tablets, 1 for 3 weeks, 2 for 5 weeks, initial 13/8) was 11/6, the “blood pressure after treatment, recumbent, morning” value ([10]; CHA... Paul, 400 mg tablets, 1 for 3 weeks, 2 for 5 weeks, initial 14/8) was 12/6 and the tolerance ([10]; CHA... Paul, 8 weeks) was “Excellent tolerance”. For the same molecule, the tolerance ([10]; VUI... Robert, 5 weeks) was “Excellent tolerance”, the “depression of the blood pressure” value [10, 14] was “moderate gradual depression” and the “influence on the heart” value [10, 14] was “No deleterious influence”. For the same molecule, the systolic pressure depression [10, 14] was 2 to 4 cm of mercury, the diastolic pressure depression ([10]; oral, 200 mg to 5 g daily, normotensive, on the average) was 2 cm and the “depression of blood pressure under orthostatic conditions” value ([10]; oral, 200 mg to 5 g daily, normotensive, orthostatic) was “more substantial depression”. The “modifications in the electrocardiogram and numerous biological tests” value ([10]; oral, 200 mg to 5 g daily, blood count, sedimentation rate, phosphatases, transaminases, azotemia, glycemia, creatinine clearance, ions, lipids etc.) was “No modifications were ever noted”, the “number of "fair" results” value [11] was 5 results and the “number of "good" and "very good" results” value [11] was 13 results. The “number of "nil" results” value [11] was 4 results, the “blood pressure after treatment, standing” value ([12]; GAU... Albert, 5 x 400 mg daily 30 days + altizide 15 mg, spironolactone 25 mg, potassium chloride, prior 20/121/2) was 14/9 and the “blood pressure after treatment, recumbent” value [12, 15] was 16/10. For the same molecule, the “blood pressure after treatment, sitting” value [12, 15] was 16/10, the digestive tolerance [12, 16] was “Fair digestive tolerance” and the systemic tolerance [12, 16] was “Very good systemic tolerance”. The functional signs ([12]; GAU... Albert, + altizide, spironolactone, floating specks, headaches, dizziness, ear-buzzing) was “Improvement of the functional signs”, the “blood pressure after treatment, sitting” value [12, 17] was 18/10 and the “blood pressure after treatment, standing” value [12, 17] was 17/9. For the same molecule, the “blood pressure after treatment, recumbent” value ([12]; SUF... Auguste, 5 x 400 mg daily 30 days + furosemide 40 mg 3 times a week, potassium chloride, salt-free diet, prior 24/13) was 18/10, the “digestive and systemic tolerance” value ([12]; SUF... Auguste, + furosemide) was “Very good digestive and systemic tolerance” and the functional signs ([12]; SUF... Auguste, + furosemide, floating specks, headaches, ear-buzzing) was “Marked decrease of the functional signs”. For the same molecule, the “blood pressure after treatment, standing” value ([12]; TRU... Yves, 4 x 400 mg daily + α-methyldopa 4 x 250 mg daily, one month, after α-methyldopa alone 20/11) was 18/9, the “blood pressure after treatment, recumbent” value [12, 18] was 19/101/2 and the “blood pressure after treatment, sitting” value [12, 18] was 19/10. For the same molecule, the functional signs ([12]; TRU... Yves, + α-methyldopa, particularly the headaches) was “Marked decrease of the functional signs”, the “duration of the action” value [12, 19] was “three-fold” and the “reduction of the dosage of compound” value [12, 19] was “about 50%”. The “efficiency of combination with diuretics” value ([12]; combination with diuretics) was “particularly efficient combination”, the safety of combination ([12]; combined with other anti-hypertensive materials currently used) was “safely be combined” and the systemic tolerance ([13]; BLA... Isaac) was “Very good systemic tolerance”. For the same molecule, the “taste on intake of the tablet” value ([13]; BLA... Isaac) was “Bitter taste”, the “blood pressure after treatment, recumbent” value ([13]; BLA... Isaac, 6 then 4 tablets of 400 mg daily, 15 days each, prior 20/13) was 19/1 and the “blood pressure after treatment, sitting” value ([13]; BLA... Isaac, 6 then 4 tablets of 400 mg daily, 15 days each, prior 20/121/2) was 19/10. The “blood pressure after treatment, standing” value ([13]; BLA... Isaac, 6 then 4 tablets of 400 mg daily, 15 days each, prior 191/2/10) was 141/2/10, the tolerance ([13]; PER... Robert) was “Excellent tolerance” and the “blood pressure after treatment, sitting” value ([13]; PER... Robert, 2, 4, then 6 tablets of 400 mg per day, 28 days, prior 21/12) was 161/2/10. The “blood pressure after treatment, standing” value ([13]; PER... Robert, 2, 4, then 6 tablets of 400 mg per day, 28 days, prior 201/2/12) was 17/10, the “blood pressure after treatment, recumbent” value ([13]; PER... Robert, 2, 4, then 6 tablets of 400 mg per day, 28 days, prior 211/2/12) was 15/10 and the functional signs ([13]; PER... Robert, headaches, ear-buzzing) was “Disappearance of the functional signs”. The “return of blood pressure to former levels after interruption” value ([13]; after interruption of administration) was 3 to 4 days, the “onset of the depression” value ([13]; alone, 300 mg to 5 g daily) was “within a few hours or a few days” and the “troublesome orthostatic hypotension induced fits of faintness” value ([13]; alone, 300 mg to 5 g daily) was “None of the subjects”. The “blood pressure in standing position” value ([13]; alone, 300 mg to 5 g daily, standing) was “more highly depressed, becoming close to normal or even attaining the normal value”, the side-effect ([13]; disappear when ingested in the middle of a meal and/or dosage decreased) was “a few cases of gastric pains and nausea” and the “patients with moderate depression” value ([13]; fraction of patients, alone, 300 mg to 5 g daily, recumbent) was “One-fourth”. For the same molecule, the “hypertensive subjects with substantial depression of the blood pressure” value [13, 20] was “more than half”, the subjects non-influenced [13, 20] was “Less than one-fourth” and the “diastolic pressure depression in subjects with substantial depression” value [13, 21] was > 2 cm of mercury. For the same molecule, the “systolic pressure depression in subjects with substantial depression” value [13, 21] was > 4 cm of mercury, the “diastolic pressure depression in patients with moderate depression” value [13, 22] was “about 1 cm” and the “systolic pressure depression in patients with moderate depression” value [13, 22] was “about 2 cm”. The action ([13]; oral, 200 mg to 5 g daily) was “rapid but gradual action”, the toxicity and tolerance ([13]; oral, 200 mg to 5 g daily) was “free from toxicity, well tolerated” and the “effects on blood pressure versus diuretic drugs, α-methyldopa and other hypotensive agents” value ([13]; particularly with respect to the diastolic pressure) was “much more rapid and much more positive”. For the same molecule, the “effect on the diastolic pressure in Man” value [13, 23] was “well established”, the “efficiency in Man” value [13, 23] was “excellent efficiency” and the “toxicity in Man” value [13, 23] was “free from toxicity”.
